The source of these data is patent publication US20050136444A1 (priority 2003, published 2005).

The subject of one test is Hot Plate Test. As to the kind of experiment: 52° C. hot plate test after systemic administration. It is filed as in vivo, rat. Particulars: rats, 10 mg/kg i.p., vs vehicle. The protocol: Rats were injected with either vehicle or 10 mg/kg Compound 2616 (i.p.) and then assessed for possible changes in sensitivity to a noxious thermal stimulus using the 52° C. hot plate test.
Background: In hot-plate and tail-flick tests a longer latency is read as antinociception.

A further test has as its target T1, NPFF2b (Homo sapiens, UniProt Q9Y5X5).
T1 construct: expressed in transfected cells; host or cells: HEK-T
In words: cAMP assay in transiently transfected HEK-T cells, NPFF2. Type of test: cell-based. The note with it: for EC50: cAMP data, Table 2, HEK-T cells, read-out: NPFF2b pEC50 Mean (converted). The protocol:
An assay was established for measuring cAMP in transiently transfected cells that takes advantage of the fact that most cells that are transfected with one gene, can be simultaneously transfected with other genes. Thus, the NPFF1 and NPFF2 receptors were transfected along with a Gs-coupled receptor (EP2) at a ratio of 5:1.
This set up was routinely used for the transfection of HEK-T cells with NPFF1 and NPFF2 receptors. […] Cells were incubated for 15 minutes at 37° C. At the end of incubation, cells were lysed and the remainder of the assay performed as per DiscoveRx protocol.
Cells were incubated for another 15 minutes at 37° C. following which the cells were lysed and processed as per kit protocol.
Background: Changes in cAMP serve as a functional read-out for many G protein-coupled receptors.

Test [1] has as its system Compound 2616-induced Tactile Allodynia. In words: Compound 2616-induced Tactile Allodynia in naive rats, effect of dPQR. Particulars: 10 mg/kg, i.p., 75 min post-injection, vs vehicle; Hydrochloride. It is filed as in vivo, rat. The protocol: To confirm that the pronociceptive actions of Compound 2616 were mediated via NPFF1 receptors we performed a pharmacological experiment where we administered dPQR (Dansyl-Pro-Gln-Arg, a reported NPFF antagonist, custom synthesized by Phoenix Pharmaceuticals) to rats treated with Compound 2616. Baseline paw withdrawal thresholds were obtained in naive rats. Following testing, the rats received either vehicle or Compound 2616 (10 mg/kg, i.p.). […] Half of the rats that received Compound 2616 were then injected with either vehicle or dPQR (30 mg/kg, i.p.).

The subject of test [2] is 52° C. Water Tail Flick Test. As to the kind of experiment: 52° C. Water Tail Flick Test, intrathecal administration. Type of test: in vivo, rat. The note with it: rats, morphine 3, 10, 30 μg, NPFF 100 μg, 1045 11.6 or 115.5 μg, 1DME 5.6, 55.6 or 556.0 μg. The protocol:
Rats were implanted with chronically indwelling intrathecal catheters (PE-10; 7.5 cm) allowing for the delivery of compounds to the lumbar spinal cord. As a positive control, rats were treated with various doses of morphine (3, 10 and 30 μg).
Rats were implanted with chronically indwelling intrathecal catheters (PE-10; 7.5 cm) allowing for the delivery of compounds to the lumbar spinal cord.
Rats were implanted with chronically indwelling intrathecal catheters (PE-10; 7.5 cm) allowing for the delivery of compounds to the lumbar spinal cord. In order to rule out the possibility that the lack of antinociception produced by NPFF was due to the degradation of the peptide we administered 1DME (a stable NPFF analog).

Test [3] relates to Carrageenan-induced Thermal Hyperalgesia. As to the kind of experiment: Carrageenan-induced Thermal Hyperalgesia (hot plate). The note with it: for hot plate latencies in vehicle-treated (no carrageenan) rats: 10 mg/kg; for calculated A50, reversal of thermal hyperalgesia: 95% CI; for reversal of carrageenan-induced thermal hyperalgesia: rats, 1, 3 and 10 mg/kg, hot plate. It is filed as in vivo, rat. The protocol:
Naive male Sprague-Dawley rats (175-200 g) were assessed for their responsiveness to a noxious thermal stimulus. Response latencies were measured using the hot plate test. Rats were placed in a plexiglass enclosure on a thermostatically controlled metal plate maintained at 52° C. […] Following testing, an animal model of acute inflammatory pain was created by injecting 100 μl of 2% λ-carrageenan ion to a hind paw. Three hours after carrageenan injection, hot plate latencies were again obtained. A significant reduction in the hot plate latency was interpreted as the presence of thermal hyperalgesia. Rats were injected with compound or vehicle and then tested at various time-points following drug administration. Data were converted to % Maximum Possible Effect (% MPE) by the formula, % MPE=((test-post-inflammatory)/(naive-post-inflammatory))*100, where the test score is the hot plate latency obtained after compound administration, the post-inflammatory score is the average response obtained 3 hr post-carrageenan, and the naive score is the average response obtained prior to manipulation. Additionally, paw thickness was measured (with a micrometer) following testing in order to quantify edema. Although none of the compounds tested reversed carrageenan-induced edema formation (data not shown), these compounds produced a dose-related reversal of carrageenan-induced thermal hyperalgesia.
Rats were injected (i.paw.) with 100 μl of 2% carrageenan or vehicle (dH2O) in order to produce a state of acute inflammatory pain. […] Rats were then treated with various doses of Compound 1045 (1, 3 and 10 mg/kg, i.p.) and hot plate latencies were tested across a period of 3 hours.
Rats were injected (i.paw.) with 100 μl of 2% carrageenan or vehicle (dH2O) in order to produce a state of acute inflammatory pain.
Rats were injected (i.paw.) with 100 μl of 2% carrageenan or vehicle (dH2O) in order to produce a state of acute inflammatory pain. […] Rats were then treated with various doses of Compound 3099 (1, 3 and 10 mg/kg, i.p.) and hot plate latencies were tested across a period of 3 hours.

Test [4] relates to formalin-induced flinching. In words: Formalin Flinching. Particulars: rats, 10 mg/kg i.p. 15 min prior to formalin. It is filed as in vivo, rat. The protocol:
Naive male Sprague-Dawley rats (175-200 g) were injected with a test compound followed by an injection of 50 μl of a 5.0% formalin solution into the dorsal surface of a hind paw and then placed in individual plastic cages for observation. The number of nociceptive responses (i.e., paw flinches/licks/bites) was counted for a period of 60 min following formalin injection. […] Compounds were administered 15 min prior to formalin injection. The results are depicted in FIG. 4.
A model of tonic pain was created in rats by administering an injection of 5.0% formalin solution (50 μl) into the dorsal surface of a hind paw and then placing the rat in an individual plastic cage for observation. Paw flinches/licks/bites are counted for a period of 60 min. Rats received either vehicle or Compound 3099 (10 mg/kg, i.p.) 15 min prior to the formalin injection. […] This finding is consistent with our previous data.
A model of tonic pain was created in rats by administering an injection of 5.0% formalin solution (50 μl) into the dorsal surface of a hind paw and then placing the rat in an individual plastic cage for observation. Paw flinches/licks/bites are counted for a period of 60 min. […] This finding is consistent with our previous data.

“Also recorded” adds a separate entry of the source. Counter-ions that a name gives are not always drawn.

T1 sequence (Q9Y5X5 103-522 limits assumed): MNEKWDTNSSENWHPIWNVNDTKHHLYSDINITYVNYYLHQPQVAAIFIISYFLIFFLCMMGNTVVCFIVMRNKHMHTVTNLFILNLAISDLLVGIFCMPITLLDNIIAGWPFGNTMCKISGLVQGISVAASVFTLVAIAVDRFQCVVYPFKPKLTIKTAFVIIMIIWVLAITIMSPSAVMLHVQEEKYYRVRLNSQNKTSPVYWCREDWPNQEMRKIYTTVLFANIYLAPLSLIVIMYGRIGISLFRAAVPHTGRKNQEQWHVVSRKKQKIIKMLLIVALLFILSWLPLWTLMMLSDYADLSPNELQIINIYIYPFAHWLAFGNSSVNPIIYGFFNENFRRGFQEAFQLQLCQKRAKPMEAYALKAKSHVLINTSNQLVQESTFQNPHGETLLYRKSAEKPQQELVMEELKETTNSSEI

Consider `NC(N)=NN=Cc1ccc(-c2ccccc2C(F)(F)F)o1` (racemic) [Compound 2616, 1-[(5-(2-(Trifluoromethyl)phenyl)-furan-2-yl)-methyleneamino]guanidine Hydrochloride], for which the “hot plate latency (thermal hyperalgesia)” value in the test on Hot Plate Test is on record as “produced a significant reduction in the hot plate latency”. On NPFF2b (HEK-T cell, read-out: NPFF2b % Efficacy Mean), the Emax was 114%. In addition, the EC50 on NPFF2b was 3.16 µM. In test [1], the “paw withdrawal thresholds / tactile sensitivity of naive rats” value is given as “markedly decreased; also recorded: resulted in an increased sensitivity to innocuous tactile stimulation”.

As for `NC(N)=N/N=C/c1ccc(Cl)c(Cl)c1` [Compound 1045, 1-(3,4-Dichlorobenzylideneamino)guanidine Hydrochloride], the “antinociception in 52° C. water tail flick test” value in test [2] was “failed to elicit antinociception”. Moreover, the “hot plate latencies in vehicle-treated (no carrageenan) rats” value in test [3] was “did not significantly alter sensitivity to noxious thermal stimulation”. Moreover, in test [3] (carrageenan-treated rats, i.p.), the “maximum efficacy, reversal of thermal hyperalgesia” value was 57.6% and the “calculated A50, reversal of thermal hyperalgesia” value is 7.8 mg/kg. In addition, the “reversal of carrageenan-induced thermal hyperalgesia” value in test [3] (i.p.) is “dose-related reversal of thermal hyperalgesia”. The “carrageenan-induced edema formation in the hind paw” value in test [3] (rats, paw thickness) is reported as “did not significantly alter edema formation”.

`Cl.N=C(N)N/N=C/c1ccc(Br)c(Br)c1` [Compound 3093, 1-(3,4-Dibromobenzylideneamino)guanidine Hydrochloride]: the EC50 on NPFF2b is 6.31 µM. Also, the “formalin-induced flinching, phase I” value in test [4] (0-10 min post-formalin) was “inactive”. Besides, the “inhibition of formalin-induced flinching, phase II” value in test [4] (15-60 min post-formalin) is given as ~62.1 % inhibition. For the same molecule, the “hot plate latencies in vehicle-treated (no carrageenan) rats” value in test [3] is “did not significantly alter the hot plate latencies”. In addition, in test [3] (carrageenan-treated rats, i.p.), the “time of peak effect after administration” value was in the range of 30 to 60 min and the “calculated A50, reversal of thermal hyperalgesia” value is 1.6 mg. Besides, the “reversal of carrageenan-induced thermal hyperalgesia” value in test [3] (i.p.) is “dose-related reversal of thermal hyperalgesia”.
